According to patent publication US20200392150A1, “Diaryl-B-Lactam Compound and Preparation Method and Pharmaceutical Use Thereof” (Fudan University, priority 2016, published 2020):

Assays:
Experiment in all cases: In vitro cell growth inhibition assay (MTT)
Type in all cases: cell-based, human
A2780 = A2780 human ovarian cancer cell line, 48 h, MTT; read-out: IC50 A2780
Experimental: (§1) 5000 tumor cells per well were seeded into 96-well plate and allowed to adhere overnight. Cells were treated with various concentrations of tested compounds or DMSO (0.2%, as negative control) for 48 h. Then, the medium along with tested compounds or DMSO was discarded and […] per well MTT containing medium (0.5 mg/mL) was added. After incubation at 37° C. for 4 h, the MTT-containing medium was replaced by DMSO (150 μL per well) to dissolve the formazan crystals. Absorbance of the resulting solution was measured by microplate reader (Biotech ELx800) at 540 nm wavelength. Growth inhibition rates were calculated with the absorbance. Half maximal inhibitory concentration (IC50) of each compound was calculated using GraphPad Prism, version 6.0.

Hela = Hela human cervical cancer cell line, 48 h, MTT; read-out: IC50 Hela
Experimental: as §1

MDA-MB-231 = MDA-MB-231 human breast cancer cell line, 48 h, MTT; read-out: IC50 MDA-MB-231
Experimental: as §1

SKOV3 = conditions: SK-OV-3; SKOV-3 human ovarian cancer cell line, 48 h, MTT; read-out: IC50 SKOV3
Experimental: as §1

| SMILES | IC50 (A2780) [µM] | IC50 (Hela) [µM] | IC50 (MDA-MB-231) [µM] | IC50 (SKOV3) [µM] |
| --- | --- | --- | --- | --- |
| COc1ccc([C@H]2[C@@H](OC(=O)CCC(=O)O)C(=O)N2c2cc(OC)c(OC)c(OC)c2)cc1O [Compound 64, 4-(((2S,3R)-2-(3-hydroxy-4-methoxyphenyl)-4-oxo-1-(3,4,5-trimethoxyphenyl)azetidin-3-yl)oxy)-4-oxobutanoic acid] | 0.079 | 0.178 | 0.102 | 0.21 |
| C=C1C(=O)N(c2cc(OC)c(OC)c(OC)c2)[C@H]1c1ccc(OC)c(N)c1 [Compound 41, (S)-4-(3-amino-4-methoxyphenyl)-3-methylene-1-(3,4,5-trimethoxyphenyl)azetidin-2-one] | 0.031 | 0.032 | 0.04 | 0.036 |
| C=C1C(=O)N(c2cc(OC)c(OC)c(OC)c2)[C@H]1c1ccc(OC)c(OCC(=O)OCC)c1 [Compound 12, (5)-ethyl 2-(2-methoxy-5-(3-methylene-4-oxo-1-(3,4,5-trimethoxyphenyl)azetidin-2-yl)phenoxy)acetate] | > 20 | > 20 | > 20 | > 20 |
| COC[C@@]1(OC)C(=O)N(c2cc(OC)c(OC)c(OC)c2)[C@H]1c1ccc(OC)c(O)c1 [Compound 81, (3R,4S)-4-(3-hydroxy-4-methoxyphenyl)-3-methoxy-3-(methoxymethyl)-1-(3,4,5-trimethoxyphenyl)azetidin-2-one] | 1.75 | 2.56 | 2.65 | 2.47 |
| COc1ccc([C@@H]2N(c3cc(OC)c(OC)c(OC)c3)C(=O)[C@]2(O)CO)cc1O [Compound 80, (3R,4S)-3-hydroxy-4-(3-hydroxy-4-methoxyphenyl)-3-(hydroxymethyl)-1-(3,4,5-trimethoxyphenyl)azetidin-2-one] | 1.77 | 3.42 | 4.47 | 3 |
| COc1ccc([C@H]2[C@@H](C)C(=O)N2c2cc(OC)c(OC)c(OC)c2)cc1N [Compound 103, (3R,4R)-4-(3-amino-4-methoxyphenyl)-3-methyl-1-(3,4,5-trimethoxyphenyl)azetidin-2-one] | 0.078 | 0.061 | 0.081 | 0.077 |
| C=C1C(=O)N(c2cc(OC)c(OC)c(OC)c2)[C@H]1c1ccc(OC)c(OCCCO)c1 [Compound 9, (S)-4-(3-(3-hydroxypropoxy)-4-methoxyphenyl)-3-methylene-1-(3,4,5-trimethoxyphenyl)azetidin-2-one] | 1.54 | 7.47 | 1.92 | 3.03 |
| C=C1C(=O)N(c2cc(OC)c(OC)c(OC)c2)[C@H]1c1ccc(OC)c(F)c1 [Compound 38, (S)-4-(3-fluoro-4-methoxyphenyl)-3-methylene-1-(3,4,5-trimethoxyphenyl)azetidin-2-one] | 0.121 | 0.131 | 0.111 | 0.134 |
| CC[C@H]1C(=O)N(c2cc(OC)c(OC)c(OC)c2)[C@H]1c1ccc(OC)c(O)c1 [Compound 106, (3R,4R)-3-ethyl-4-(3-hydroxy-4-methoxyphenyl)-1-(3,4,5-trimethoxyphenyl)azetidin-2-one] | 0.25 | 0.32 | 0.286 | 0.215 |
| C=C1C(=O)N(c2cc(OC)c(OC)c(OC)c2)[C@H]1c1ccc(C(C)C)cc1 [Compound 88, (S)-4-(4-isopropylphenyl)-3-methylene-1-(3,4,5-trimethoxyphenyl)azetidin-2-one] | 2.12 | 2.21 | 2.55 | 2.47 |
| C=C1C(=O)N(c2cc(OC)c(OC)c(OC)c2)[C@H]1c1ccc(OC)c(OS(=O)(=O)c2ccc(C)cc2)c1 [Compound 27, (S)-2-methoxy-5-(3-methylene-4-oxo-1-(3,4,5-trimethoxyphenyl)azetidin-2-yl)phenyl 4-methylbenzenesulfonate] | 6.67 | 17.8 | 12.8 | 12.1 |
